Data on four compounds can be found in paper PMC9925557, “Anti-inflammatory effects of new human histamine H3 receptor ligands with flavonoid structure on BV-2 neuroinflammation” (Inflammation Research, 2022).

The structures appear in SMILES notation.

The target in series [1] is T1, human histamine H1 receptor (Homo sapiens, UniProt P35367).
T1 construct: expressed in transfected cells; host or cells: CHO-K1
Kind of series: [3H]Pyrilamine radioligand binding, CHO-K1 cells stably expressing hH1R. Conditions: for Selectivity Ki (H1R)/Ki (H3R): hH3R over hH1R. Here is the method:
(§1) Radioligand binding studies, using CHO-K1 cells stably expressing the H1R or Sf9 cells transiently expressing the H4R were performed as described previously. [^3H]Pyrilamine (H1R) and [^3H]histamine (H4R) were used as radiolignads. Affinities were determined using at least five different concentrations of tested compounds in triplicate independent experiments.

The test system of series [2] is neuroblastoma SH-SY5Y cells. Conditions: 1 µM, 24 h pre-treatment; H2O2 (300 μM) and okadaic acid (50 nM); ref 2nd International Conference on Neuroprotection by Drugs, Nutraceuticals and Physical Activity, 9–10 Dec 2021; cited from earlier work.
A further series deals with electric eel AChE. Also on record: method as in PMID 31669851. The note with it: cited from earlier work.
The target of series [3] is T2, human histamine H4 receptor (Homo sapiens, UniProt Q9H3N8).
T2 construct: expressed in transfected cells; host or cells: Sf9
T2 sequence (Q9H3N8 whole entry): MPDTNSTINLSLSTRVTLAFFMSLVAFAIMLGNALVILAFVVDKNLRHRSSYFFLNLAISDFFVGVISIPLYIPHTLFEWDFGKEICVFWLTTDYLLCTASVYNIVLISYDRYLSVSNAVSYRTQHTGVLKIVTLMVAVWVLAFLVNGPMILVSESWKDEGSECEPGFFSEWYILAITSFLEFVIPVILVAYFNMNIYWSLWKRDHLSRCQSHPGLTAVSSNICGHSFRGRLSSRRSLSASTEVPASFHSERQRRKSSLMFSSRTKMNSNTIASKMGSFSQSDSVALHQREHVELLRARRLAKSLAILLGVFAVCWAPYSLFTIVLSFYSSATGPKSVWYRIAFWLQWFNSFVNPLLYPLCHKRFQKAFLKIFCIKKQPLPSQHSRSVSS
Kind of series: [3H]Histamine radioligand binding, Sf9 cells transiently expressing hH4R. The note with it: for Selectivity Ki (H4R)/Ki (H3R): hH3R over hH4R. Here is the method:
as §1

The next series deals with human AChE. Also on record: method as in PMID 31669851. Conditions: cited from earlier work.
Series [4] concerns BV-2 cells. In words: Griess assay (NO/nitrite level) in LPS-treated BV-2 cells. It counts as cell-based, murine. Conditions: 6.25 μM, 1 h pretreatment, then 1 μg/ml LPS for 24 h. Here is the method:
The Griess assay is a colorimetric assay to measure the levels of nitrite (NO2^−) which is one of the primary and stable metabolites of NO. Griess reagent (Sigma-Aldrich, Saint Louis, MO, USA, G4410) was freshly prepared according to the manufacturer's instructions, that is, 1 g was dissolved in ultrapure water and mixed by inversion for about 4 min. For measuring nitric oxide, after an appropriate incubation time, 100 μl of culture medium was transferred to a transparent 96-well plate and mixed with the same volume of Griess reagent. The plate was incubated for 15 min at room temperature and the absorbance was read at 540 nm using the EnSpire microplate reader (PerkinElmer, Massachusetts, USA). Data were analysed by direct comparison based on the average absorbance of LPS treatment, compound treatment or co-treatment with LPS, performed by normalizing treated cells (compound alone or co-treatment with LPS) to LPS-treated cells set as 100%.
(§2) To establish an experimental model of neuroinflammation in vitro, BV-2 cells were cultured in a 96-well plate (2 × 10^4 cells/200 μl/per well) and a 24-well plate (15 × 10^4 cells/500 μl/well) for the MTS assay and the Griess assay or the RT-qPCR experiment, respectively. BV-2 cells were treated for 24 h, 45 h and 69 h with the increasing concentration of LPS (Sigma-Aldrich, Saint Louis, MO, USA, L4391): 0.001; 0.01; 0.1; 1 [μg/ml]. Following LPS stimulation, at each time point, 100 μl of culture medium from each sample was transferred to another plate and mixed with an equal volume of Griess reagent. Simultaneously, on the plate with cells, cell viability was assessed by adding 20 μl of MTS reagent. The cells cultured on a 24-well plate were used for assessing the expression levels of proinflammatory cytokines (IL-1β, IL-6, TNF-α) by RT-qPCR.
Fig. 6 The effect of the compounds tested (E243 and IIIa–IIIc) on nitric oxide (NO) production in BV-2 cells assessed by the Griess assay. BV-2 cells were pretreated for 1 h with indicated compounds at the concentration of 6.25 μM, followed by stimulation with 1 μg/ml LPS for 24 h. Data are expressed as mean ± SEM of two independent experiments, each of which consisted of eight replicates per treatment group and is expressed as a percentage of NO production versus cells treated with LPS (set at 100%). […] Data indicated with ***p < 0.001 (versus vehicle-treated cells) reflect statistically significant differences between the control and experimental groups

Another series deals with equine BuChE. Also on record: method as in PMID 31669851. Conditions: cited from earlier work.
Series [5] deals with BV-2 cells. Kind of series: MTS cell viability assay. The note with it: Mus musculus, 24 h exposure, mean ± SD, read-out: IC50 (inhibition of cell viability). It counts as cell-based, murine. Here is the method:
The murine microglial BV-2 cell line was purchased from the Interlab Cell Line Collection (ICLC) cell bank (Genova, Italy). The BV-2 cells were cultured in DMEM/F12 medium (Lonza, BioWhittaker, Walkersville, MD USA, 12-719F) containing 10% of heat-inactivated fetal bovine serum (FBS, Gibco, 10,500–064) in a humidified incubator containing 95% air and 5% CO2 at 37 °C. BV-2 cells were used for experiments at passages 3 to 11. In all experiments, the concentration of FBS was reduced to 5%.
BV-2 cells (2 × 10^4 cells/100 μl/well) were cultured in transparent 96-well plates (TPP, Trasadingen, Switzerland) in DMEM/F12 supplemented with 5% FBS in the presence of dimethylsulfoxide (DMSO ≤ 0.1%, vehicle control, Veh) or increasing doses of tested compounds (0.78 × 10^–6 – 50 × 10^–6 M). Compound treatment was performed for 24 h. After the incubation time, cell viability was examined using an MTS-based [3-(4,5-dimethylthiazol-2-yl)-5-(3-carboxymethoxyphenyl)-2-(4-sulfophenyl)-2 H tetrazolium] CellTiter96® AQueous One Solution Cell Proliferation Assay (Promega, Madison, USA) following the manufacturer’s protocol. Briefly, 20 μl of MTS solution was pipetted into each well containing 100 μl of culture or culture medium without cells (blank control), mixed well and incubated at 37 °C for 55 min. After the appropriate time, the absorbance was measured at 490 nm using the EnSpire microplate reader (PerkinElmer, Massachusetts, USA). IC50 values were calculated with non-linear regression fit to a sigmoidal dose–response curve (log of compound concentration versus normalized response) using GraphPad Prism (v. 4.0.3).
as §2
To avoid the toxic effect of H3R ligands in subsequent studies, an MTS assay was performed to investigate cell viability. BV-2 cells were cultured for 24 h in the presence of an increasing concentration of compounds E243 and IIIa–IIIc (twofold dilutions covered the range from 0.78 × 10^–6 to 50 × 10^–6 M). […]
(Formazan colour is commonly taken as a measure of viable cells.)

The next series concerns the target T3, human H3 receptor (Homo sapiens, UniProt Q9Y5N1).
T3 construct: expressed in transfected cells; host or cells: CHO-K1
In words: [3H]Nα-methylhistamine radioligand binding, CHO-K1 cells stably expressing hH3R. How it is done: Radioligand binding studies were conducted using CHO-K1 cells stably transfected with the human H3 receptor as we described previously. All assays were carried out in duplicates. [^3H]-N-α-methylhistamine was used as radioligand and (R)(-)-α-methylhistamine was used to define nonspecific binding. Radioactivity was counted in MicroBeta2 scintillation counter (PerkinElmer). Data were fitted to a one-site curve-fitting equation with Prism 6 (GraphPad Software) and Ki values were estimated from the Cheng − Prusoff equation.
Compounds IIIa–IIIc were tested for affinity for human H3R (hH3R) in a radioligand binding assay with N^α-methylhistamine as a radioligand in CHO K1 cells stably expressing hH3R. Results are presented as Ki values with SEM (Table 2). […] However, it is still a very active compound. The affinity for hH3R (stably expressed in HEK293 cells) of compound E243 was recently described.

Series [6] deals with BV-2 cells. Kind of series: ELISA of pro-inflammatory cytokines released by LPS-activated BV-2 cells. The note with it: for Inhibitory activity on pro-inflammatory cytokine production: LPS-stimulated BV-2 cells, data not shown. It counts as cell-based, murine. How it is done:
The concentrations of IL-1β, IL-6, TNF-α, the main inflammatory cytokines, were analysed using commercial ELISA kits (IL-6 ELISA kit, ADI-900–045, TNF-α ELISA kit, ADI-900–047, Enzo, Mouse IL-1 beta ELISA kit, Invitrogen) according to the manufacturer’s instructions. Briefly, at the end of 24 h of incubation with tested compounds, cell culture plates were centrifuged to remove cell debris from the supernatants. Culture medium was collected in Eppendorf tubes and frozen at −80 °C until further analysis.
Fig. 8 Effect of compound IIIc on the production of proinflammatory cytokines by LPS-activated BV-2 cells.

In series [7] the test system is BV-2 cells. In words: RT-qPCR of pro-inflammatory cytokine mRNA in LPS-activated BV-2 cells. Conditions: 6.25 μM, 1 h pretreatment, LPS 1 μg/ml 24 h; on average. For orientation: Quantitative PCR measures a nucleic acid by following its amplification.
The mark [8] stands for this setting: 6.25 μM, 1 h pretreatment, LPS 1 μg/ml 24 h.

T1 sequence (P35367 whole entry): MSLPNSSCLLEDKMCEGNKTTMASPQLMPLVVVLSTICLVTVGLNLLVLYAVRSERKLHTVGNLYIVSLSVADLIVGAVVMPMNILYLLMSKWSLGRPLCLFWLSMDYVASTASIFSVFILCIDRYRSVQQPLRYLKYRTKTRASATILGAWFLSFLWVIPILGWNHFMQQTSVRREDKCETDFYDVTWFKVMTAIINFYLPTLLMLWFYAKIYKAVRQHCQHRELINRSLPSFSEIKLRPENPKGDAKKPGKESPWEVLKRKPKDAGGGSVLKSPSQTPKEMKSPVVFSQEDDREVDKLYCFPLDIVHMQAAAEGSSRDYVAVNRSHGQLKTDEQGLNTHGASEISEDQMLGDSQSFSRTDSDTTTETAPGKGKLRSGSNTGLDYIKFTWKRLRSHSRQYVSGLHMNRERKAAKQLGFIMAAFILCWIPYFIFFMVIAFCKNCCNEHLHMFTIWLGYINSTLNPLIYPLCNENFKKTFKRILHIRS
T3 sequence (Q9Y5N1 whole entry): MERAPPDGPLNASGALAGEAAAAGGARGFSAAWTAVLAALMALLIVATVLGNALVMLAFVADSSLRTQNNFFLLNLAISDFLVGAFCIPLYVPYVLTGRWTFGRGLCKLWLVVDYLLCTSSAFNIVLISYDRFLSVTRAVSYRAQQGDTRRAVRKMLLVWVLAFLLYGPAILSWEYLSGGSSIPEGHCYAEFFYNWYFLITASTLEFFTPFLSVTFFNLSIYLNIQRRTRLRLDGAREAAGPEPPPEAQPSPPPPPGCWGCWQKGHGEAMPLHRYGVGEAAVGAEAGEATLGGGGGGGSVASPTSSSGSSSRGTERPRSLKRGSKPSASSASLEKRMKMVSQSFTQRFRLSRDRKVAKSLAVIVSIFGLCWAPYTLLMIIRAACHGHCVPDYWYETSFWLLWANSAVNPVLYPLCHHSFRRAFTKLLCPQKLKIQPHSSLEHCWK

One may read the Ki as the equilibrium dissociation constant of an inhibitor or competing ligand from its target. Lower therefore signals a stronger hold on the target. The IC50 is the concentration at which inhibition is half-maximal. For the compound `Cc1ccc2oc(-c3ccc(OCCCCCCN4CCCCC4)cc3)cc(=O)c2c1` [Compound E243], the Ki in [1] was found to be 1.31 ± 0.128 µM; in series [3] it was 4.44 µM. Moreover, the “Selectivity Ki (H1R)/Ki (H3R)” value in series [1] was > 5. Further, in series [2], the “Prevention of ROS production, times compared to neurotoxin-treated cells” value is reported as ~2 times. Further, the IC50 was 0.501 µM in the series with electric eel AChE, 0.36 µM with human AChE, 0.758 µM in the series with equine BuChE and 53.5 ± 5.56 µM in the series with BV-2 cells [5]. The “Selectivity Ki (H4R)/Ki (H3R)” value in [3] is reported as > 19. In the series on BV-2 cells [4], the “Reduction of NO level compared to LPS treated cells” value (“Reduction of NO level” for short) was ~30%.
Usually melting point stands for the temperature of the solid-liquid transition. `COc1ccc(/C=C/C(=O)c2ccc(OCCCN3CCCCC3)cc2)cc1.Cl` [IIIa, (E)-3-(4-Methoxyphenyl)-1-(4-(3-(piperidin-1-yl)propoxy)phenyl)prop-2-en-1-one hydrogen chloride] had a melting point of 174 to 177 °C. Besides, the “Reduction of NO level” value with BV-2 cells [4] is ~30%. In addition, the Ki on human H3 receptor worked out at 0.014 ± 0.0002 µM. Moreover, the “Inhibitory activity on pro-inflammatory cytokine production” value in the series with BV-2 cells [6] is reported as “have not shown inhibitory activity”. The IC50 in the series on BV-2 cells [5] was determined as 21.2 ± 1.98 µM.
`COc1ccc(/C=C/C(=O)c2ccc(OCCCN3CCCCC3)cc2)cc1OC.Cl` [IIIb, (E)-3-(3,4-Dimethoxyphenyl)-1-(4-(3-(piperidin-1-yl)propoxy)phenyl)prop-2-en-1-one hydrogen chloride] registered a melting point of 173 to 176 °C. In series [1], affinity was put at a Ki of 1.08 µM and the “Selectivity Ki (H1R)/Ki (H3R)” value is reported as > 112. In addition, in [3], the Ki was determined as 12.5 µM and the “Selectivity Ki (H4R)/Ki (H3R)” value is listed as > 1300. In addition, the “Reduction of NO level” value with BV-2 cells [4] is given as ~30%. For the same compound, affinity on human H3 receptor was put at a Ki of 0.0096 ± 0.0002 µM. The “Inhibitory activity on pro-inflammatory cytokine production” value with BV-2 cells [6] is reported as “have not shown inhibitory activity”. The IC50 with BV-2 cells [5] amounted to 26.7 ± 3.48 µM.
Consider `COc1cc(/C=C/C(=O)c2ccc(OCCCN3CCCCC3)cc2)cc(OC)c1OC.Cl` [IIIc, (E)-3-(3,4,5-Trimethoxyphenyl)-1-(4-(3-(piperidin-1-yl)propoxy)phenyl)prop-2-en-1-one hydrogen chloride], for which, in series [1], the Ki came out at 2.7 µM and the “Selectivity Ki (H1R)/Ki (H3R)” value is > 112. Besides, in the series with BV-2 cells [7], the “IL-1β mRNA level, times lower than induced by LPS alone” value is recorded as ~2 times and the “TNF-α mRNA level, times lower than induced by LPS alone” value is given as ~3 times. Moreover, in series [3], the Ki was determined as 2.82 µM and the “Selectivity Ki (H4R)/Ki (H3R)” value is given as > 117. Also, the “Reduction of NO level” value in the series on BV-2 cells [4] stood at 61%. Moreover, the Ki on human H3 receptor was 0.024 ± 0.0011 µM. In the series with BV-2 cells [6] (setting [8]), the “Release of IL-1β compared to LPS-stimulated BV-2 cells” value was “significantly lower”, the “Release of IL-6 compared to LPS-stimulated BV-2 cells” value is on record as “significantly lower” and the “Release of TNF-α compared to LPS-stimulated BV-2 cells” value is reported as “significantly lower”. Moreover, the IC50 in the series on BV-2 cells [5] was 11.3 ± 3.26 µM.
